In the supplement of paper PMC10307832:

Experiments:
Assay in all cases: relative viability (nuclei count vs DMSO), 5 days (fraction); higher = more cells survive
201T = tested on: 201T
Procedure, shortened: (§1)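 Lung cancer cell lines were seeded in 1536-well plates and dosed by pin tool the next day, with either a single drug or a fixed anchor-drug dose combined with five library-drug doses (not always all listed) spaced in √10 steps. Five days later, one step fixed the cells and stained their nuclei (final 0.05% Triton X-100, 1% formaldehyde, 1 ug/ml Hoechst), and nuclei were counted on 4× images. Relative viability is the nuclei count in treated wells divided by the count in vehicle wells, and each value is the median of duplicate plates.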

A-427 = tested on: A-427
Procedure, shortened: as §1

COR-L23 = tested on: COR-L23
Procedure, shortened: as §1

HARA = tested on: HARA
Procedure, shortened: as §1

HCC-78 = tested on: HCC-78
Procedure, shortened: as §1

LCLC-103H = tested on: LCLC-103H
Procedure, shortened: as §1

LCLC-97TM1 = tested on: LCLC-97TM1
Procedure, shortened: as §1

LK-2 = tested on: LK-2
Procedure, shortened: as §1

LOU-NH91 = tested on: LOU-NH91
Procedure, shortened: as §1

LXF-289 = tested on: LXF-289
Procedure, shortened: as §1

NCI-H1651 = tested on: NCI-H1651
Procedure, shortened: as §1

NCI-H1793 = tested on: NCI-H1793
Procedure, shortened: as §1

NCI-H2347 = tested on: NCI-H2347
Procedure, shortened: as §1

NCI-H23 = tested on: NCI-H23
Procedure, shortened: as §1

NCI-H2405 = tested on: NCI-H2405
Procedure, shortened: as §1

NCI-H520 = tested on: NCI-H520
Procedure, shortened: as §1

NCI-H647 = tested on: NCI-H647
Procedure, shortened: as §1

NCI-H838 = tested on: NCI-H838
Procedure, shortened: as §1

PC-3 [JPC-3] = tested on: PC-3 [JPC-3]
Procedure, shortened: as §1

RERF-LC-KJ = tested on: RERF-LC-KJ
Procedure, shortened: as §1

UMC-11 = tested on: UMC-11
Procedure, shortened: as §1

Cc1csc(=NC2CCCCC2)n1/N=C/c1ccc(O)c(O)c1O [MIM1] + Cc1nc(NC(=O)N2CCC[C@H]2C(N)=O)sc1-c1ccnc(C(C)(C)C(F)(F)F)c1 [Alpelisib] (partner 2 µM)
relative viability (201T; first compound 0.2 µM): 1
relative viability (201T; first compound 0.6325 µM): 1.03
relative viability (201T; first compound 2 µM): 1.02
relative viability (201T; first compound 6.325 µM): 0.942
relative viability (201T; first compound 20 µM): 1.29
relative viability (A-427; first compound 0.2 µM): 1.09
relative viability (A-427; first compound 0.6325 µM): 1.06
relative viability (A-427; first compound 2 µM): 1.15
relative viability (A-427; first compound 6.325 µM): 1.06
relative viability (A-427; first compound 20 µM): 0.335
relative viability (COR-L23; first compound 0.2 µM): 0.725
relative viability (COR-L23; first compound 0.6325 µM): 0.809
relative viability (COR-L23; first compound 2 µM): 0.537
relative viability (COR-L23; first compound 6.325 µM): 0.558
relative viability (COR-L23; first compound 20 µM): 0.457
relative viability (HARA; first compound 0.2 µM): 0.887
relative viability (HARA; first compound 0.6325 µM): 0.857
relative viability (HARA; first compound 2 µM): 0.878
relative viability (HARA; first compound 6.325 µM): 0.361
relative viability (HARA; first compound 20 µM): 0.165
relative viability (HCC-78; first compound 0.2 µM): 0.329
relative viability (HCC-78; first compound 0.6325 µM): 0.388
relative viability (HCC-78; first compound 2 µM): 0.362
relative viability (HCC-78; first compound 6.325 µM): 0.365
relative viability (HCC-78; first compound 20 µM): 0.359
relative viability (LCLC-103H; first compound 0.2 µM): 0.9
relative viability (LCLC-103H; first compound 0.6325 µM): 1.08
relative viability (LCLC-103H; first compound 2 µM): 1.08
relative viability (LCLC-103H; first compound 6.325 µM): 0.913
relative viability (LCLC-103H; first compound 20 µM): 0.928
relative viability (LCLC-97TM1; first compound 0.2 µM): 0.255
relative viability (LCLC-97TM1; first compound 0.6325 µM): 0.258
relative viability (LCLC-97TM1; first compound 2 µM): 0.207
relative viability (LCLC-97TM1; first compound 6.325 µM): 0.26
relative viability (LCLC-97TM1; first compound 20 µM): 0.129
relative viability (LK-2; first compound 0.2 µM): 0.958
relative viability (LK-2; first compound 0.6325 µM): 1.04
relative viability (LK-2; first compound 6.325 µM): 0.963
relative viability (LK-2; first compound 20 µM): 0.374
relative viability (LOU-NH91; first compound 0.2 µM): 0.704
relative viability (LOU-NH91; first compound 0.6325 µM): 0.779
relative viability (LOU-NH91; first compound 2 µM): 0.591
relative viability (LOU-NH91; first compound 6.325 µM): 0.641
relative viability (LOU-NH91; first compound 20 µM): 0.561
relative viability (LXF-289; first compound 0.2 µM): 1.07
relative viability (LXF-289; first compound 0.6325 µM): 0.998
relative viability (LXF-289; first compound 2 µM): 1.02
relative viability (LXF-289; first compound 6.325 µM): 0.82
relative viability (LXF-289; first compound 20 µM): 0.609
relative viability (NCI-H1651; first compound 0.2 µM): 0.927
relative viability (NCI-H1651; first compound 0.6325 µM): 0.974
relative viability (NCI-H1651; first compound 2 µM): 0.921
relative viability (NCI-H1651; first compound 6.325 µM): 0.793
relative viability (NCI-H1651; first compound 20 µM): 0.936
relative viability (NCI-H1793; first compound 0.2 µM): 0.509
relative viability (NCI-H1793; first compound 0.6325 µM): 0.584
relative viability (NCI-H1793; first compound 2 µM): 0.717
relative viability (NCI-H1793; first compound 6.325 µM): 0.579
relative viability (NCI-H1793; first compound 20 µM): 0.804
relative viability (NCI-H2347; first compound 0.2 µM): 1.03
relative viability (NCI-H2347; first compound 0.6325 µM): 1.02
relative viability (NCI-H2347; first compound 2 µM): 1.13
relative viability (NCI-H2347; first compound 6.325 µM): 0.728
relative viability (NCI-H2347; first compound 20 µM): 0.534
relative viability (NCI-H23; first compound 0.2 µM): 0.653
relative viability (NCI-H23; first compound 2 µM): 0.555
relative viability (NCI-H23; first compound 6.325 µM): 0.606
relative viability (NCI-H23; first compound 20 µM): 0.203
relative viability (NCI-H2405; first compound 0.2 µM): 0.787
relative viability (NCI-H2405; first compound 0.6325 µM): 0.85
relative viability (NCI-H2405; first compound 2 µM): 0.739
relative viability (NCI-H2405; first compound 6.325 µM): 0.76
relative viability (NCI-H2405; first compound 20 µM): 0.644
relative viability (NCI-H520; first compound 0.2 µM): 0.902
relative viability (NCI-H520; first compound 0.6325 µM): 0.9
relative viability (NCI-H520; first compound 2 µM): 1.19
relative viability (NCI-H520; first compound 6.325 µM): 0.633
relative viability (NCI-H520; first compound 20 µM): 0.41
relative viability (NCI-H647; first compound 0.2 µM): 1.23
relative viability (NCI-H647; first compound 0.6325 µM): 1.14
relative viability (NCI-H647; first compound 2 µM): 1.12
relative viability (NCI-H647; first compound 6.325 µM): 0.991
relative viability (NCI-H647; first compound 20 µM): 0.213
relative viability (NCI-H838; first compound 0.2 µM): 0.974
relative viability (NCI-H838; first compound 0.6325 µM): 1
relative viability (NCI-H838; first compound 2 µM): 0.83
relative viability (NCI-H838; first compound 6.325 µM): 0.827
relative viability (NCI-H838; first compound 20 µM): 1.09
relative viability (PC-3 [JPC-3]; first compound 0.2 µM): 1.06
relative viability (PC-3 [JPC-3]; first compound 0.6325 µM): 1.03
relative viability (PC-3 [JPC-3]; first compound 2 µM): 1.02
relative viability (PC-3 [JPC-3]; first compound 6.325 µM): 0.884
relative viability (PC-3 [JPC-3]; first compound 20 µM): 0.716
relative viability (RERF-LC-KJ; first compound 0.2 µM): 0.802
relative viability (RERF-LC-KJ; first compound 0.6325 µM): 0.801
relative viability (RERF-LC-KJ; first compound 2 µM): 0.704
relative viability (RERF-LC-KJ; first compound 6.325 µM): 0.668
relative viability (RERF-LC-KJ; first compound 20 µM): 0.213
relative viability (UMC-11; first compound 0.2 µM): 0.952
relative viability (UMC-11; first compound 0.6325 µM): 1.04
relative viability (UMC-11; first compound 2 µM): 0.962
relative viability (UMC-11; first compound 6.325 µM): 0.69
relative viability (UMC-11; first compound 20 µM): 0.224
